Data from patent US4820695A, “C-20-dihydro-deoxy-(cyclic amino)-derivatives of macrolide antibiotics” (priority 1987, dated 1989).
Values after ≈ are worked out from the molar mass of the structure shown. Like-named read-outs stand apart in the source and are kept apart here.

Legend:
Staphyloccus aureus X1.1 = experiment: MIC, standard agar-dilution assay (Table IX); assay type: cell-based, Staphylococcus aureus; details: Staphylococcus aureus, read-out: MIC
[1] = system: Staphylococcus aureus V41; experiment: MIC, standard agar-dilution assay (Table IX); assay type: cell-based; details: Staphylococcus aureus V41, Penicillin-resistant strain, read-out: MIC
[2] = system: Staphylococcus aureus X400; experiment: MIC, standard agar-dilution assay (Table IX); assay type: cell-based; details: Staphylococcus aureus X400, Methicillin-resistant strain, read-out: MIC
[3] = system: Staphylococcus aureus S13E; experiment: MIC, standard agar-dilution assay (Table IX); assay type: cell-based; details: Staphylococcus aureus, S13E
[4] = system: Staphylococcus epidermidis EPI1; experiment: MIC, standard agar-dilution assay (Table IX); assay type: cell-based; details: Staphylococcus epidermidis EPI1; agar-dilution; read-out: MIC
[5] = system: Staphylococcus epidermidis 222; experiment: MIC, standard agar-dilution assay (Table IX); assay type: cell-based; details: read-out: MIC
[6] = system: Streptococcus pyogenes C203; experiment: MIC, standard agar-dilution assay (Table IX); assay type: cell-based; details: read-out: MIC
[7] = system: Streptococcus pneumoniae Park I; experiment: MIC, standard agar-dilution assay (Table IX); assay type: cell-based; details: Streptococcus pneumoniae Park I; agar-dilution; read-out: MIC
[8] = system: Streptococcus Group D X66; experiment: MIC, standard agar-dilution assay (Table IX); assay type: cell-based; details: read-out: MIC
[9] = system: Streptococcus Group D 2041; experiment: MIC, standard agar-dilution assay (Table IX); assay type: cell-based; details: GROUPD2041, read-out: MIC
[10] = system: Haemophilus influenzae C.L.; experiment: MIC, standard agar-dilution assay (Table IX); assay type: cell-based; details: Ampicillin-sensitive strain, read-out: MIC
[11] = system: Haemophilus influenzae 76; experiment: MIC, standard agar-dilution assay (Table IX); assay type: cell-based; details: Haemophilus influenzae 76, Ampicillin-resistant strain, read-out: MIC
Escherichia coli N10 = experiment: MIC, standard agar-dilution assay (Table IX); assay type: cell-based; details: read-out: MIC
Escherichia coli EC14 = experiment: MIC, standard agar-dilution assay (Table IX); assay type: cell-based; details: read-out: MIC
Escherichia coli TEM = experiment: MIC, standard agar-dilution assay (Table IX); assay type: cell-based; details: read-out: MIC
Klebsiella X26 = experiment: MIC, standard agar-dilution assay (Table IX); assay type: cell-based; details: read-out: MIC
[12] = system: Mycoplasma gallisepticum 29C; experiment: MIC, broth-dilution microtiter test (Table X); assay type: cell-based; details: Mycoplasmoides gallisepticum, read-out: MIC
From the text: (§1) The MIC's in Table X were obtained using conventional broth-dilution microtiter tests.

[13] = system: Mycoplasma hyopneumoniae S5972; experiment: MIC, broth-dilution microtiter test (Table X); assay type: cell-based; details: Mesomycoplasma hyopneumoniae, read-out: MIC
From the text: as §1

Mycoplasma hyorhinis 29E = experiment: MIC, broth-dilution microtiter test (Table X); assay type: cell-based; details: read-out: MIC
From the text: as §1

Mycoplasma synoviae 40A = experiment: MIC, broth-dilution microtiter test (Table X); assay type: cell-based; details: Mycoplasmopsis synoviae, read-out: MIC
From the text: as §1

[14] = system: Pasteurella hemolytica 22C; experiment: MIC, broth-dilution microtiter test (Table X); assay type: cell-based; details: read-out: MIC
From the text: as §1

[15] = system: Pasteurella multocida 17E; experiment: MIC, broth-dilution microtiter test (Table X); assay type: cell-based; details: Bovine isolate, read-out: MIC
From the text: as §1

[16] = system: Pasteurella multocida 60A; experiment: MIC, broth-dilution microtiter test (Table X); assay type: cell-based; details: Avian isolate, read-out: MIC
From the text: as §1

Staphylococcus aureus = experiment: MIC, broth-dilution microtiter test (Table X); assay type: cell-based; details: read-out: MIC
From the text: as §1

Streptococcus sp. 19F = experiment: MIC, broth-dilution microtiter test (Table X); assay type: cell-based; details: read-out: MIC
From the text: as §1

[17] = Titratable groups in 66% aqueous DMF (Tables XIV-XVI); assay type: physicochemical
From the text: ^c Run in 66% aqueous DMF
^d Run in 66% aqueous DMF

[18] = Titratable groups (first value)

With `CCC1OC(=O)CC(O)C(C)C(OC2OC(C)C(O)C(N(C)C)C2O)C(CCN2CCC(O)CC2)CC(C)C(=O)C=CC(C)=CC1COC1OC(C)C(O)C(OC)C1OC` (stereo not drawn) [Compound D3, 20-DH-DO-20-(4-hydroxypiperidin-1-yl)desmycosin] the MIC (Staphyloccus aureus X1.1) was 8 µg/mL (≈ 9.33 µM), the MIC [1] was 8 µg/mL (≈ 9.33 µM) and the MIC [2] was 16 µg/mL (≈ 18.7 µM). The MIC [3] was 8 µg/mL (≈ 9.33 µM), the MIC [4] was 8 µg/mL (≈ 9.33 µM) and the MIC [5] was 4 µg/mL (≈ 4.67 µM). For the same compound, the MIC [6] was 1 µg/mL (≈ 1.17 µM), the MIC [7] was 8 µg/mL (≈ 9.33 µM) and the MIC [8] was 128 µg/mL (≈ 149 µM). It also gave an MIC [9] of 32 µg/mL (≈ 37.3 µM), an MIC [10] of 64 µg/mL (≈ 74.7 µM) and an MIC [11] of 64 µg/mL (≈ 74.7 µM). For the same compound, the MIC (Escherichia coli N10) was over 128 µg/mL, the MIC (Escherichia coli EC14) was over 128 µg/mL and the MIC (Escherichia coli TEM) was over 128 µg/mL. It also gave an MIC (Klebsiella X26) of 64 µg/mL (≈ 74.7 µM), an MIC [12] of 25 µg/mL (≈ 29.2 µM) and an MIC [13] of 6.25 µg/mL (≈ 7.29 µM). For the same compound, the MIC (Mycoplasma hyorhinis 29E) was 50 µg/mL (≈ 58.3 µM), the MIC (Mycoplasma synoviae 40A) was 6.25 µg/mL (≈ 7.29 µM) and the MIC [14] was 50 µg/mL (≈ 58.3 µM). It also gave an MIC [15] of 50 µg/mL (≈ 58.3 µM), an MIC [16] of 50 µg/mL (≈ 58.3 µM) and an MIC (Staphylococcus aureus) of 12.5 µg/mL (≈ 14.6 µM). The MIC (Streptococcus sp. 19F) was 12.5 µg/mL (≈ 14.6 µM), the pKa ([17]; Titratable groups) was 8.7 and the pKa [17, 18] was 7.1.

With `CCC1OC(=O)CC(O)C(C)C(OC2OC(C)C(O)C(N(C)C)C2O)C(CCN2CCCCCC2)CC(C)C(=O)C=CC(C)=CC1COC1OC(C)C(O)C(O)C1OC` (stereo not drawn) [Compound L4, 20-DH-DO-20-(hexahydroazepin-1-yl)lactenocin] the MIC (Staphyloccus aureus X1.1) was 2 µg/mL (≈ 2.38 µM), the MIC [1] was 2 µg/mL (≈ 2.38 µM) and the MIC [2] was 2 µg/mL (≈ 2.38 µM). It also gave an MIC [3] of 2 µg/mL (≈ 2.38 µM), an MIC [4] of 2 µg/mL (≈ 2.38 µM) and an MIC [5] of 1 µg/mL (≈ 1.19 µM). It also gave an MIC [6] of 1 µg/mL (≈ 1.19 µM), an MIC [7] of 8 µg/mL (≈ 9.51 µM) and an MIC [8] of 32 µg/mL (≈ 38 µM). The MIC [9] was 16 µg/mL (≈ 19 µM), the MIC [10] was 16 µg/mL (≈ 19 µM) and the MIC [11] was 16 µg/mL (≈ 19 µM). For the same compound, the MIC (Escherichia coli N10) was over 128 µg/mL, the MIC (Escherichia coli EC14) was over 128 µg/mL and the MIC (Escherichia coli TEM) was over 128 µg/mL. It also gave an MIC (Klebsiella X26) of 16 µg/mL (≈ 19 µM), an MIC [12] of 12.5 µg/mL (≈ 14.9 µM) and an MIC [13] of 1.56 µg/mL (≈ 1.85 µM). For the same compound, the MIC (Mycoplasma hyorhinis 29E) was 50 µg/mL (≈ 59.4 µM), the MIC (Mycoplasma synoviae 40A) was 1.56 µg/mL (≈ 1.85 µM) and the MIC [14] was 25 µg/mL (≈ 29.7 µM). The MIC [15] was 12.5 µg/mL (≈ 14.9 µM), the MIC [16] was 12.5 µg/mL (≈ 14.9 µM) and the MIC (Staphylococcus aureus) was 6.25 µg/mL (≈ 7.43 µM). The MIC (Streptococcus sp. 19F) was 6.25 µg/mL (≈ 7.43 µM), the pKa ([17]; Titratable groups) was 9.7 and the pKa [17, 18] was 8.

In the case of `CCC1OC(=O)CC(O)C(C)C(OC2OC(C)C(O)C(N(C)C)C2O)C(CCN2CCC(N3CCCCC3)CC2)CC(C)C(=O)C=CC(C)=CC1COC1OC(C)C(O)C(OC)C1OC` (stereo not drawn) [Compound D13, 20-DH-DO-20-[(4-piperidino)piperidin-1-yl]desmycosin], the MIC (Staphyloccus aureus X1.1) is reported as 0.5 µg/mL (≈ 0.541 µM), the MIC [1] is reported as 1 µg/mL (≈ 1.08 µM) and the MIC [2] is reported as 1 µg/mL (≈ 1.08 µM). The MIC [3] was 1 µg/mL (≈ 1.08 µM), the MIC [4] was 1 µg/mL (≈ 1.08 µM) and the MIC [5] was 0.25 µg/mL (≈ 0.27 µM). For the same compound, the MIC [6] was 2 µg/mL (≈ 2.16 µM), the MIC [7] was 2 µg/mL (≈ 2.16 µM) and the MIC [8] was 2 µg/mL (≈ 2.16 µM). The MIC [9] was 2 µg/mL (≈ 2.16 µM), the MIC [10] was 16 µg/mL (≈ 17.3 µM) and the MIC [11] was 8 µg/mL (≈ 8.66 µM). It also gave an MIC (Escherichia coli N10) of over 128 µg/mL, an MIC (Escherichia coli EC14) of over 128 µg/mL and an MIC (Escherichia coli TEM) of over 128 µg/mL. The MIC (Klebsiella X26) was 16 µg/mL (≈ 17.3 µM), the MIC [12] was 6.25 µg/mL (≈ 6.76 µM) and the MIC [13] was 3.12 µg/mL (≈ 3.38 µM). It also gave an MIC (Mycoplasma hyorhinis 29E) of 50 µg/mL (≈ 54.1 µM), an MIC (Mycoplasma synoviae 40A) of 1.56 µg/mL (≈ 1.69 µM) and an MIC [14] of 12.5 µg/mL (≈ 13.5 µM). It also gave an MIC [15] of 12.5 µg/mL (≈ 13.5 µM), an MIC [16] of 12.5 µg/mL (≈ 13.5 µM) and an MIC (Staphylococcus aureus) of 3.12 µg/mL (≈ 3.38 µM). For the same compound, the MIC (Streptococcus sp. 19F) was 6.25 µg/mL (≈ 6.76 µM), the pKa ([17]; Titratable groups) was 9.2 and the pKa [17, 18] was 6.

For `CCC1OC(=O)CC(O)C(C)C(OC2OC(C)C(OC3CC(C)(O)C(O)C(C)O3)C(N(C)C)C2O)C(CCN2CCCCCCC2)CC(C)C(=O)C=CC(C)=CC1COC1OC(C)C(O)C(O)C1OC` (stereo not drawn) [Compound M4, 20-DH-DO-20-(octahydroazocin-1-yl)macrocin], the MIC (Staphyloccus aureus X1.1) was 4 µg/mL (≈ 4 µM), the MIC [1] was 4 µg/mL (≈ 4 µM) and the MIC [2] was 8 µg/mL (≈ 8.01 µM). The MIC [3] was 4 µg/mL (≈ 4 µM), the MIC [4] was 4 µg/mL (≈ 4 µM) and the MIC [5] was 2 µg/mL (≈ 2 µM). For the same compound, the MIC [6] was 2 µg/mL (≈ 2 µM), the MIC [7] was 32 µg/mL (≈ 32 µM) and the MIC [8] was over 128 µg/mL. The MIC [9] was over 128 µg/mL, the MIC [10] was 128 µg/mL (≈ 128 µM) and the MIC [11] was 128 µg/mL (≈ 128 µM). It also gave an MIC (Escherichia coli N10) of over 128 µg/mL, an MIC (Escherichia coli EC14) of over 128 µg/mL and an MIC (Escherichia coli TEM) of over 128 µg/mL. The MIC (Klebsiella X26) was over 128 µg/mL, the MIC [12] was 3.12 µg/mL (≈ 3.12 µM) and the MIC [13] was 6.25 µg/mL (≈ 6.25 µM). For the same compound, the MIC (Mycoplasma hyorhinis 29E) was over 50 µg/mL, the MIC (Mycoplasma synoviae 40A) was 6.25 µg/mL (≈ 6.25 µM) and the MIC [14] was over 50 µg/mL. For the same compound, the MIC [15] was over 50 µg/mL, the MIC [16] was over 50 µg/mL and the MIC (Staphylococcus aureus) was 12.5 µg/mL (≈ 12.5 µM). It also gave an MIC (Streptococcus sp. 19F) of 12.5 µg/mL (≈ 12.5 µM), a pKa ([17]; 66% aqueous DMF, read-out: Titratable groups) of 9.25 and a pKa ([17]; 66% aqueous DMF, read-out: Titratable groups (first value)) of 6.9.
